Laboratory results: US12521363B2, “Use of levodopa, carbidopa and entacapone for treating Parkinson's disease” (ORION CORPORATION, priority 2010, dated 2026)

Assays:
[1] = cited from earlier work
[2] = Repeated-dose levodopa/carbidopa pharmacokinetics with and without entacapone, human subjects (Example 1); assay type: in vivo; details: for levodopa pharmacokinetics, effect of increasing the carbidopa dose: repeated dosing 4 times a day, levodopa 100 mg, carbidopa 25/50/100 mg
Description: The primary objective of the study was to evaluate the effects of different carbidopa dose levels on the pharmacokinetics (PKs) of levodopa with and without concomitant administration of entacapone. This was the first study to evaluate the effect of the combinations in a repeated dose setting in human subjects. Pharmacokinetics of levodopa in the presence of AADC and COMT inhibition with substances like carbidopa and entacapone is complex and difficult to model based on single dose PK data in humans, or animal models. However, it has been shown earlier that levodopa PK in healthy subjects is similar to that seen in PD patients and therefore the results of this study indicate how the levodopa PK will be in PD patients and how the levodopa PK will predict symptom control of PD. A total of 25 human subjects were enrolled into the study. The study subjects were randomly allocated to receive either 200 mg of entacapone or corresponding placebo in each treatment period. Entacapone, or a corresponding placebo, was administered concomitantly with 100 mg of levodopa and 25 mg of carbidopa at 3.5-hour intervals 4 times a day. In addition, the study subjects received in a randomised order in each treatment period one of the additional dose levels (0 mg, 25 mg, and 75 mg) of carbidopa. There were 3 treatment periods, one for each carbidopa dose level and for the same subjects with cross-over design so that each subject participated for the 3 periods. There were two groups with the same carbidopa doses, one group with and one group without concomitant entacapone administration. By this study design, the effect of entacapone on carbidopa dose escalation and subsequently to levodopa PK could be assessed in repeated dose setting in humans. Dose combinations were: • A: Entacapone 200 mg+levodopa 100 mg+carbidopa 25 mg • B: Entacapone 200 mg+levodopa 100 mg+carbidopa 50 mg • C: Entacapone 200 mg+levodopa 100 mg+carbidopa 100 mg • E: Levodopa 100 mg+carbidopa 25 mg • F: Levodopa 100 mg+carbidopa 50 mg • G: Levodopa 100 mg+carbidopa 100 mg After the first and last dose of the day, the whole levodopa and carbidopa plasma profiles were assessed and after the second and third dose only the minimum concentrations (just before the next dose at 3.5 and at 7.0 hours) were assessed.

[3] = Repeated-dose levodopa pharmacokinetics with increasing carbidopa, entacapone dose levels or tolcapone (Example 2); assay type: in vivo, human; details: repeated dosing, increased COMT-inhibition by higher entacapone dose or by tolcapone
Description: The primary objective of the study was to evaluate the effects of different carbidopa dose levels on the pharmacokinetics (PKs) of levodopa with concomitant administration of different entacapone dose levels and with the moderately potent COMT inhibitor tolcapone.
The study subjects were randomly allocated to receive either increasing doses of entacapone or standard dose of tolcapone combined with increasing doses of carbidopa in each treatment period, a total of 12 different dose combinations. Entacapone was administered concomitantly with 100 mg of levodopa and 25 mg of carbidopa at 3.5-hour intervals 4 times a day and tolcapone 3 times a day. In addition, the study subjects received increasing dose levels of carbidopa.
There were three groups, one for each carbidopa dose level, and 4 treatment periods in each group, one for each entacapone dose level or for tolcapone and for the same subjects with cross-over design so that one subject participated for the 4 periods. By this study design the effect of entacapone and tolcapone on carbidopa dose escalation and subsequently to levodopa PK could be assessed in repeated dose setting in humans.
After each levodopa dose of the day, the levodopa plasma profile was assessed. The levodopa plasma concentrations after entacapone dose escalation and tolcapone standard dose and with increased carbidopa dose are given in FIG. 3.

[4] = increased carbidopa dose in the presence of a COMT inhibitor

In the case of `Cc1c(Cl)c(C)[n+]([O-])c(Cl)c1-c1noc(-c2cc(O)c(O)c([N+](=O)[O-])c2)n1` [BIA 9-1067, 5-[3-(2,5-dichloro-4,6-dimethyl-1-oxypyridin-3-yl)-[1,2,4]oxadiazol-5-yl]-3-nitrobenzene-1,2-diol], the solubility [1] is given as “poorly soluble”.
With `C[C@@](Cc1ccc(O)c(O)c1)(NN)C(=O)O` [carbidopa, (−)-L-alpha-hydrazino-alpha-methyl-beta-(3,4-dihydroxybenzene)propionic acid] the “accumulation of carbidopa concentrations in plasma” value ([2]; increased carbidopa dose, repeated dosing, towards the end of the dosing period) was “no accumulation”.
In the case of `CCN(CC)C(=O)/C(C#N)=C/c1cc(O)c(O)c([N+](=O)[O-])c1` [entacapone, (E)-2-cyano-3-(3,4-dihydroxy-5-nitrophenyl)-N-diethyl-2 propenamide], the water solubility ([1]; water) is listed as “poor solubility”.
With `N[C@@H](Cc1ccc(O)c(O)c1)C(=O)O` [levodopa, (−)-L-alpha-amino-beta-(3,4-dihydroxybenzene)propanoic acid] the AUC of levodopa [2, 4] was “significantly increased”, the Cmin of levodopa [2, 4] was “significantly increased” and the “maximum concentrations of levodopa” value ([2]; increased carbidopa dose with COMT inhibitor) was “not clinically significantly increased”. The “levodopa pharmacokinetics, effect of increasing the carbidopa dose” value ([2]; with entacapone 200 mg) was “significantly improve”, the “levodopa pharmacokinetics, effect of increasing the carbidopa dose” value ([2]; without entacapone) was “did not have such an effect” and the “levodopa pharmacokinetics, effect of increasing the carbidopa dose” value [3] was “significantly improve”.
